{
  "source": "patent US10662194B2",
  "about": "“Substituted 6-anilino-9-heterocyclylpurine derivatives for inhibition of plant stress” (UNIVERZITA PALACKEHO V OLOMOUCI, priority 2014, dated 2020)",
  "key": {"CRE1/AHK4": {"molecular_target": "T1, CRE1/AHK4 (Arabidopsis thaliana, UniProt Q9C5U0)", "T1 construct": "expressed in transfected cells; host or cells: Escherichia coli strain KMI001", "T1 sequence (Q9C5U0 whole entry)": "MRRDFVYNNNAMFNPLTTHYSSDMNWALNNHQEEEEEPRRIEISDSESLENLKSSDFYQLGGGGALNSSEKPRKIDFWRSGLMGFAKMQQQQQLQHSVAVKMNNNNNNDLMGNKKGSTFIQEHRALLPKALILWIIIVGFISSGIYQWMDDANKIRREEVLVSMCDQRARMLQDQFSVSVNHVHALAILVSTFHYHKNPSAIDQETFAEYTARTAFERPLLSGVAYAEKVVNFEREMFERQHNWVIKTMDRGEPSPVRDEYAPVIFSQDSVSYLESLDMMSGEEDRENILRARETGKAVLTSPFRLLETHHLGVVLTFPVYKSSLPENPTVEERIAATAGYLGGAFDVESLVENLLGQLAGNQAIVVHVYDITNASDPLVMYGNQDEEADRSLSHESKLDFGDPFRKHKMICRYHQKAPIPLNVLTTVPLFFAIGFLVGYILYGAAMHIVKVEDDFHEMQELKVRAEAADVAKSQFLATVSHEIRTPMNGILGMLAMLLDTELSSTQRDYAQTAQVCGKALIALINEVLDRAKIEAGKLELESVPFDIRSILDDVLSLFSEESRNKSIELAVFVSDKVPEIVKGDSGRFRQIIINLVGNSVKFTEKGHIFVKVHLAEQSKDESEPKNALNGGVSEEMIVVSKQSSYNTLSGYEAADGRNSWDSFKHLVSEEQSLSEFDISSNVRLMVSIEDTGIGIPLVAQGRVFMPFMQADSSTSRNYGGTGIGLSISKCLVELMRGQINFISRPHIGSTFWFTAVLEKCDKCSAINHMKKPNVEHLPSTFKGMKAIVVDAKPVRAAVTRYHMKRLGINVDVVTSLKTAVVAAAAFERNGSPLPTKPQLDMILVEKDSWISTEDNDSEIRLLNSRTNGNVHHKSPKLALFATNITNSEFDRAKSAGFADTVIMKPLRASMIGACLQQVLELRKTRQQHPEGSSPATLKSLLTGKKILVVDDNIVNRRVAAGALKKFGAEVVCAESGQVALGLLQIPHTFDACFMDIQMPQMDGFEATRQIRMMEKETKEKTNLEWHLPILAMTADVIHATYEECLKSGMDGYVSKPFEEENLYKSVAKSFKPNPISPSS", "test": "Escherichia coli cytokinin receptor activation assay (CRE1/AHK4)", "format": "cell-based", "details": "10^−7 M-5×10^−5 M, compared to trans-zeatin, FIG. 1", "method": "Escherichia coli strains KMI001 harbouring the plasmid pIN-III-AHK4 or pSTV28-AHK3 were grown overnight at 25° C. in M9 media enriched with 0.1% casamino acids to OD600˜1. The preculture was diluted 1:600 in 1 ml M9 medium containing 0.1% casamino acids and 1 μL stock solution of either the tested compound (10^−7 M-5×10^−5 M) or solvent control (DMSO, ethanol, methanol) were added. The cultures were further grown at 25° C. in microtiter plate, 200 μL per well. […] The cultures were centrifuged and 50 μL aliquots of the supernatant were transferred to microtiter plate containing 2 μL 50 mM 4-methyl umbelliferyl galactoside which was subsequently incubated for 1 h at 37° C. The reaction was stopped by adding 100 μL 0.2 M Na2CO3. Fluorescence was measured using a Fluoroscan Ascent (Labsystems, Finland) at the excitation and emission wavelengths of 365 and 460 nm, respectively. The OD600 of remaining culture was determined and β-galactosidase activity was calculated as nmol 4-methylumbelliferone×OD600^−1×h^−1."}, "recombinant AtCKX2": {"molecular_target": "T2, recombinant AtCKX2 (Arabidopsis thaliana, UniProt Q9FUJ3)", "T2 construct": "made in house; host or cells: S. cerevisiae strain 23344c ura-", "T2 sequence (Q9FUJ3 23-501)": "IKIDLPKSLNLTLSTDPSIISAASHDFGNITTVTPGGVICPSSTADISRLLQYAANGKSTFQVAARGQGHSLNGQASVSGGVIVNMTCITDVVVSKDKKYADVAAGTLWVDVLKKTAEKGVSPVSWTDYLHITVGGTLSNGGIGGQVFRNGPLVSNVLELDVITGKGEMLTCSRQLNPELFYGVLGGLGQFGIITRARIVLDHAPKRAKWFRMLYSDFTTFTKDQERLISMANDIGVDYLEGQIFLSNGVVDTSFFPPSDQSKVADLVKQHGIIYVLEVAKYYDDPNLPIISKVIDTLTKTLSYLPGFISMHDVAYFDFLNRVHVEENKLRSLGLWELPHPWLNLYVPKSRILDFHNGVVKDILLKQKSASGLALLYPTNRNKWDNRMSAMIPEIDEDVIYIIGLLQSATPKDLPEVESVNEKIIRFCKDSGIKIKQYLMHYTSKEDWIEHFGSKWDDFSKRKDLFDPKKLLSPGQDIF", "test": "Inhibition of cytokinin oxidase/dehydrogenase activity (PMS/MTT microtitre assay)", "format": "biochemical", "method": "IC50 measurements were done using the assay in microtitre plate. Each well contained 100 μL of PMS/MTT [phenazine methosulfate/3-(4,5-dimethylthiazol-2-yl)-2,5-diphenyltetrazolium bromide] reaction mixture (final concentrations: 0.1 M KH2PO4, pH 7.4, 1 mM MTT, 0.2 mM PMS) containing the tested compound (3×10^−7 M-3×10^−4 M) and 30 μM N^6-isopentenyladenine (iP) as a substrate. 100 μL of cell-free growth medium of S. cerevisiae strain 23344c ura^− harboring the plasmid pYES2-AtCKX2 was directly used as a source of AtCKX2. Plates were incubated in the dark for 30 min at 37° C. and the enzymatic reaction was stopped by 25 μL of 35% acetic acid. The absorbance at 578 nm was measured using spectrophotometer Tecan. Absorbance of the sample without iP was subtracted.\nThe IC50 value, the compound concentration that inhibits the enzyme activity to 50%, was calculated from the obtained dose response curves. The values shown in Table 7 are means of three replicates and the entire test was repeated at least twice. […] Compound 12 is an effective inhibitor of AtCKX2 activity, app. 3-times stronger that thidiazuron and only app. 3-times weaker than the structurally related compound INCYDE (2-chloro-6-(3-methoxyanilino)purine)."}, "[1]": {"test_system": "winter wheat variety Diadem", "test": "Seed coating, tillering of winter wheat (field experiment)", "format": "in vivo", "details": "for Number of medium tillers (% of control) / Number of productive tillers (% of control) / Number of weak tillers (% of control): Olomouc, 2012", "method": "To evaluate the effect of seed coating with compound 12 on morphological yield forming traits of winter wheat field plot experiment was performed in year 2012 on locality Olomouc, Czech Republic. Seeds of winter weat bakery variety Diadem (Selgen) were coated with 10 and 50 μM concentration of compound 12 mixed into seed treatment agent Cruiser 350FS (Syngenta; 10 L of solution per 1000 kg of seeds), seeds coated with only Cruiser 350FS were used for control variant. The seeds were dried and then sown in the sowing rate 3.500.000 seeds per hectare in 4 replications per each variant in randomized positions (each replication was 10 square meter plot). The plants were analyzed for number of productive tillers, medium tillers and weak tillers."}, "[2]": {"test_system": "winter rapeseed variety Benefit", "test": "Seed coating, emergence and freezing tolerance of winter rapeseed (field experiment)", "format": "in vivo", "details": "50 μM seed coating", "method": "To evaluate the effect of seed coating with compound 12 on yield forming traits of winter rapeseed field plot experiment was performed in season 2010/2011 on locality Opava, Czech Republic. Seeds of winter rapeseed variety Benefit (Selgen) were coated with 50 μM concentration of compound 12 mixed into the seed coating treatment Cruiser OSR (Syngenta; 15 L of solution per 1000 kg of seeds), seeds coated with only Cruiser OSR were used for control variant. The seeds were dried and then sown in the sowing rate 700.000 seeds per hectare in 4 replications per each variant in randomized positions (each replication was 10 square meter plot). In the experiment plant emergence, freezing tolerance and final seed yield were scored. The frost tolerance was estimated by method described in (Janáček, J., Prášil, I.: Quantification of plant frost injury by nonlinear fitting of an s-shaped function. Cryo-Letters vol. 12, 1991, no. 7, 47-52)."}},
  "note": "pIC50: −log10 of the molar value. Marks after values point to notes of the source that are not given here.",
  "data": [
    {"compound": "COc1cccc(Nc2nc(Cl)nc3c2ncn3C2CCCCO2)c1", "note": "(stereo not drawn) [compound 12, 2-chloro-6-(3-methoxyanilino)-9-(tetrahydropyran-2-yl)purine]", "values": [
      {"measurement": "ability to activate cytokinin receptor CRE1/AHK4", "setting": "CRE1/AHK4", "result": "very low ability to activate"},
      {"measurement": "AtCKX2 inhibition, times stronger than thidiazuron", "setting": "recombinant AtCKX2", "result": "~3", "unit": "times"},
      {"measurement": "AtCKX2 inhibition, times weaker than INCYDE", "setting": "recombinant AtCKX2", "result": "~3", "unit": "times"},
      {"measurement": "pIC50", "setting": "recombinant AtCKX2; 30 μM iP substrate, 30 min, 37° C., read-out: IC50", "result": 4.71},
      {"measurement": "Number of medium tillers (% of control)", "setting": "[1]; 10 μM", "result": "75.0* % of control"},
      {"measurement": "Number of productive tillers (% of control)", "setting": "[1]; 10 μM", "result": "106.5 % of control"},
      {"measurement": "Number of weak tillers (% of control)", "setting": "[1]; 10 μM", "result": "102.2 % of control"},
      {"measurement": "Number of medium tillers (% of control)", "setting": "[1]; 50 μM", "result": "78.1* % of control"},
      {"measurement": "Number of productive tillers (% of control)", "setting": "[1]; 50 μM", "result": "124.2** % of control"},
      {"measurement": "Number of weak tillers (% of control)", "setting": "[1]; 50 μM", "result": "80.4 % of control"},
      {"measurement": "number of productive tillers compared to untreated control", "setting": "[1]; 10 and 50 μM", "result": "106-124%"},
      {"measurement": "Estimated frost resistence (atrifical frost test) - Letal Temperature LT50", "setting": "[2]", "result": "−12.3 *"},
      {"measurement": "Number of emerged plants per sq meter - autumn (11th October, 2010)", "setting": "[2]", "result": 60.0, "unit": "per sq meter"},
      {"measurement": "Plant height (cm) - autumn (11th October, 2010)", "setting": "[2]", "result": 6.6, "unit": "cm"},
      {"measurement": "Seed yield (% of control)", "setting": "[2]", "result": "103.1 % of control"},
      {"measurement": "increase of artificially estimated frost tolerance", "setting": "[2]", "result": "~5", "unit": "%"},
      {"measurement": "increase of the final seed yield", "setting": "[2]", "result": 3.1, "unit": "%"},
      {"measurement": "more plants emerged in the same time compared to control", "setting": "[2]", "result": "~20", "unit": "%"},
      {"measurement": "Leafs weight - autumn (22th October)", "setting": "[2]; 15 plants", "result": "11.69**"},
      {"measurement": "Root lenght (cm) - autumn (22th October)", "setting": "[2]; 15 plants", "result": 14.63, "unit": "cm"},
      {"measurement": "Seed yield (t/ha)", "setting": "[2]; mean from 4 plots", "result": 5.98, "unit": "t/ha"}
    ]}
  ]
}
